In patent US20250034520A1, “INCREASING DEVELOPMENTAL POTENTIAL OF HUMAN PREIMPLANTATION EMBRYOS BY REDUCING GENETIC INSTABILITY, ANEUPLOIDIES AND CHROMOSOMAL MOSAICISM” (THE TRUSTEES OF COLUMBIA UNIVERSITY IN THE CITY OF NEW YORK, priority 2022, published 2025):

How the values were obtained:
Format in all cases: cell-based
human embryos = assay: single-cell/single-nuclei sequencing chromosome content analysis, human embryos
Protocol: (§1) Embryos, mouse and human, were cultured in Global Total (Life-Global) for the duration of the experiments and with added compounds as outlined below. Incubation in RNA polymerase inhibitors triptolide (1 mM) or alpha amanitin (20 mg/ml) was performed from the 2PN stage (day1) to day3 of human development. Incubation in aphidicolin was performed at 2 mM. […] Mirin was used at a concentration of 50 mM. Olaparib was used to inhibit PARP at a concentration of 10 mM. All experiments were conducted during incubation at 37° C. with 5% CO2 and 19-20% O2. Chemical stock solutions were prepared in DMSO at concentrations at least 1000× higher than the final concentration.
Single cells from blastomeres were collected on the heated stage (Tokai Hit) of an Olympus IX71 inverted microscope equipped with Narishige micromanipulators and a zona pellucida laser (Hamilton-Thorne). Single nuclei were isolated from blastomeres by lysis and dissection of different nuclei using two […] diameter Piezo micropipettes and Holding pipette (Origio). Single embryo cells or nuclei were placed manually in single wells of a 96-well plate containing 9 ml of lysis buffer, prepared as a master mix of 798 ml H2O, 6 ml of 10 mg/mL Proteinase K solution (Sigma-Aldrich), and 96 ml 10× Single Cell Lysis and Fragmentation buffer (Sigma-Aldrich). Single cells/single nuclei were lysed by heating 96-well plates containing single cells/single nuclei at 50° C. for 1 hour, followed by incubation at 99° C. for four minutes using a PCR thermocycler. Single-cell/single-nuclei whole genome amplification (WGA) using degenerate oligo-nucleotide priming PCR (DOP-PCR) was performed using the SEQPLEX Enhanced DNA Amplification Kit (SEQXE, Sigma) according to the manufacturer's instructions. In addition, a modified version of the DOP-PCR protocol that allows inline indexing of WGA DNA was also applied. WGA DNA was subsequently processed for Illumina library sequencing preparation using standard TruSeq indexing methods via the NEBNext Ultra II DNA Library Prep Kit for Illumina (New England Biolabs). NEBNext Multiplex Oligos for Illumina (96 index primers) were used for four amplification cycles. Library DNA was quantified using Qubit dsDNA HS Assay Kit (Invitrogen, Carlsbad, CA, USA) and library size distribution was confirmed using a 2100 Bioanalyzer DNA 1000 Kit (Agilent, Santa Clara, CA, USA). A unimodal curve centered around 300-500 bp was scored as a successful library preparation. Subsequently, 30 mL of each pooled library was sent for sequencing at a concentration of 20 ng/ml. Mutiplex sequencing was performed using Illumina HiSeq 2500 single end indexed run (SR100) while targeting a coverage of approximately 1 million reads per cell/nuclei, sufficient for quantitative genome-wide copy number analysis.
Analysis of DNA sequencing data was performed as previously described (Baslan et al., 2015) with minor modifications as outlined below. Briefly, multiplex sequencing data were demultiplexed according to unique barcodes with reads assigned to their respective single-cell or single-nuclei. Unique reads were aligned to the reference human and mouse genome builds, hg19 and mm9, respectively. Each genome was partitioned into 5000 bins using a previously described algorithm (Varbin) that corrects for genome sequence mappability (Baslan et al., 2012; Navin et al., 2011). Uniquely mapped reads were sorted, indexed and subsequently counted within the partitioned genomic bins. For single-cell copy number inference, read count data were normalized genome-wide followed by CBS segmentation (Olshen et al., 2004) and transformed into integer copy number states using a least-squares fit approach (Baslan et al., 2015).
Copy number inference from single-nuclei sequencing data was performed similarly with the exception that bin read counts were initially processed using Kernel Density Estimation (KDE) resulting in two primary densities. […]

[1] = test system: mouse parthenogenetic zygotes; assay: anaphase figures at the first mitosis, mouse parthenogenetic zygotes
Protocol: as §1
(§2) Mouse oocytes were activated at 1-6 hours post retrieval using 2 mM ionomycin (Sigma Aldrich) in Global Total medium for 5 minutes at 37° C. followed by culture in 10 mM puromycin and 5 mg/ml cytochalasin B for 3 hours, then cytochalasinB only for 2 hours and 10 minutes to prevent second polar body extrusion.
(§3) Following the experimental exposures, mouse and human embryos were fixed in 2% paraformaldehyde (PFA) and 0.25% Triton X-100 in PBS for 10 minutes at room temperature, serially washed in phosphate-buffered solution (PBS) at room temperature, then stored in PBS at 4° C. until staining and imaging. Embryos were placed in 10-20 ml droplets of primary antibody solution within plastic tissue culture dishes covered with mineral oil for 1 hour at room temperature, serially washed (×2) in PBS containing 0.01% Triton X-100 to prevent embryos sticking to oil, then transferred to 10-20 ml secondary antibody solution and Hoechst (dilution 1:500) for 30 minutes. Embryos were then serially washed (×2) and placed in 5 ml droplets of PBS with 0.5% serum albumin in uncoated glass bottom dishes (Mattek) covered with embryo culture oil for imaging. The following primary antibodies were used across experiments as described above: Oct-4, γH2AX, RPA32, RPA32 S4/S8, RPA32 S33, 53BP1, RAD51, Centromere, and phospho-CHK1. Phospho-specific antibodies were quality controlled through ATR dependence of foci formation in mouse zygotes, and for γH2AX also in human zygotes. […] The appropriate secondary antibodies conjugated with Alexa Fluor 488, Alexa Fluor 555, CF 568, or Alexa Fluor 647 were diluted at 1:500-1:1000. Ethynyl deoxyuridine (EdU) labeling of zygotes and embryos was performed using the labeling kit (Thermo Fisher Scientific) as described by the manufacturer. 10 mM EdU was added to culture medium for 1 h at the indicated time points, and cells were harvested and fixed thereafter. 5-ethynyl uridine (EU) labeling was performed by incubating day3 cleavage stage embryos for 4 hours in Global total containing 0.2 mM EU.

mouse embryos = assay: mouse preimplantation development and embryo quality
Protocol: as §1, §2, §3
Embryos were imaged with confocal microscopy using a Zeiss LSM (LSM 710) at a magnification of 63× and the Zeiss Zen software. Images were obtained using 488-, 543- and 633-nm lasers and bright-field microscopy. The number of confocal sections was adjusted to capture the entire nucleus or the entire embryo according to the experimental design as described above. Cell numbers and staining foci numbers were counted manually. Nuclei were identified by the presence of Hoechst33342. Foci were identified if at least 3× greater intensity than nuclear average, spherical in appearance, and overlapping with Hoechst33342 staining. Inner cell masses were identified by the presence of Oct4 within a blastocyst embryo. Active DNA replication was identified by the presence of EdU. DNA damage was identified by the detection of γH2AX and RPA foci within the nucleus. Mechanisms of DNA repair were identified through the detection of RPA S4/S8, RPA S33, Rad51 and 53BP1 foci within the nucleus.

[2] = aphidicolin and G2 checkpoint kinase inhibitor at 15.5 h

## C[C@@]1(CO)[C@H](O)CC[C@@]2(C)[C@H]1CC[C@H]1C[C@@H]3C[C@@]12CC[C@]3(O)CO [aphidicolin]
Human embryos; 4 2PN zygotes, aphidicolin and CHK1 inhibitor at 18 h post ICSI
  chromosomal breaks identified: 7
Human embryos; addition of aphidicolin to CHK1 inhibition in G2 phase
  aneuploidy: further amplified
Human embryos; [2]
  chromosomes with one or more segmental copy-number transitions, share: 27%
  independent break points per embryo, average: 51
  whole-chromosome losses, share of aneuploid chromosomes in micronuclei: 73%
Human embryos; aphidicolin and G2 checkpoint kinase inhibitor at 15.5 h, 21 micronuclei from 4 zygotes
  total break sites: 331
Human embryos; combined aphidicolin exposure and G2 checkpoint inhibition
  human embryos aneuploid: all
[1]; aphidicolin in G2 phase
  embryos with abnormal anaphase, range per experiment: 7%-30%
[1]; aphidicolin in G2 phase, controls 191/191 normal
  embryos with abnormal anaphase: 17.4%
[1]; applied only after pronuclear envelope breakdown
  effect on chromosome segregation at anaphase: inconsequential
[1]; both ATR kinase inhibitor and aphidicolin in G2 phase
  frequency of abnormal anaphase figures: 63%
Mouse embryos; 48 h post activation, aphidicolin in G2
  micronucleation: increased
Mouse embryos; aphidicolin in G2 phase
  cleaved embryos developed to the blastocyst stage, range: 25%-87%
Mouse embryos; aphidicolin in G2 phase, controls 92%
  cleaved embryos developed to the blastocyst stage: 72%
Mouse embryos; day 5, aphidicolin in G2
  ICM cells marked by Pou5f1: fewer
  total cell number of blastocysts: reduced
